The data set concerns rats. Description: in vivo. The data set is classed as in vivo. Conditions: rat; for Deaths: oral. As for the experimental part:
By way of example there are described below the comparative tests made on difluorohydrate of N,N'-di(hydroxyethyl) piperazine and on fluorohydrate of hexadecylamine or "ELMEX 242".
The acute toxidity was studies in rats and in mice.
The animals came from a homogeneous breed. The mice weighed between 19 and 21 g and the rats weighed from 120 to 140 g. The mice were grouped in lots of 10 and the rats in lots of 8.
The administrations took place orally at a volume of 0.5 ml per 20 g of mouse and 1 ml per 100 g of rat. The LD50 was determined by the method of Lichfield and Wilcoxon.
As regards the difluorohydrate of N,N'-di(hydroxyethyl) piperazine, the administered solution was prepared by diluting the mother solution to 65.4%, the dilutions being made after having weighed this solution. The administered dose is expressed by weight, taking account of the indicated strength of this solution.
For the solid "ELMEX 242" an aqueous suspension was prepared with the aid of solubilizing agents (e.g. Tween-polyoxyethylene sorbitan monolaurate). A very thick suspension is then obtained which tends to foam heavily, is difficult to get into the esophageal sound, and the determination of its volume is rendered difficult by the foam.
The results obtained with the "ELMEX" are therefore rather approximate.

Each structure is given as a SMILES string.

In the case of `OCCN1CCN(CCO)CC1` [DIFLUOROHYDRATE OF N,N'-DI(HYDROXY-ETHYL) PIPERAZINE], where the note is “in vivo, po”, the symptoms / behavior result is “Some diarrhea and some trembling appear”. The Deaths stood at 0 (250 mg/kg, D + 1, 8 per lot); 0 (250 mg/kg, D + 2, 8 per lot); 0 (250 mg/kg, D + 5, 8 per lot); 0 (250 mg/kg, D + 10, 8 per lot); 0 (500 mg/kg, D + 1, 8 per lot); 0 (500 mg/kg, D + 2, 8 per lot). Further, the Deaths by setting is: (500 mg/kg, D + 5, 8 per lot) 0; (500 mg/kg, D + 10, 8 per lot) 0; (750 mg/kg, D + 1, 8 per lot) 1; (750 mg/kg, D + 2, 8 per lot) 3; (750 mg/kg, D + 5, 8 per lot) 4; (750 mg/kg, D + 10, 8 per lot) 4. Further, the Deaths is, setting by setting: (1000 mg/kg, D + 1, 8 per lot) 2; (1000 mg/kg, D + 2, 8 per lot) 5; (1000 mg/kg, D + 5, 8 per lot) 6; (1000 mg/kg, D + 10, 8 per lot) 6; (1250 mg/kg, D + 1, 8 per lot) 5; (1250 mg/kg, D + 2, 8 per lot) 7. Moreover, the Deaths came out at 8 (1250 mg/kg, D + 5, 8 per lot) and 8 (1250 mg/kg, D + 10, 8 per lot).
